Measurements reported in ChEMBL document CHEMBL3739297, “Cross metathesis with hydroxamate and benzamide BOC-protected alkenes to access HDAC inhibitors and their biological evaluation highlighted intrinsic activity of BOC-protected dihydroxamates” (Bioorg Med Chem Lett, 2016).
The source made the active and inactive calls. The rule behind the calls is not given here.

Columns and labels:
HepG2 = experiment: Antiproliferative activity against human HepG2 cells assessed as cell proliferation after 72 hrs by MTT assay; type: functional; design: concentration or dose not given beside the values
Histone deacetylase 3 = Histone deacetylase 3 (Homo sapiens, UniProt O15379); experiment: Inhibition of HDAC3 (unknown origin) by fluorimetric assay
Chain of Histone deacetylase 3 (O15379 whole entry): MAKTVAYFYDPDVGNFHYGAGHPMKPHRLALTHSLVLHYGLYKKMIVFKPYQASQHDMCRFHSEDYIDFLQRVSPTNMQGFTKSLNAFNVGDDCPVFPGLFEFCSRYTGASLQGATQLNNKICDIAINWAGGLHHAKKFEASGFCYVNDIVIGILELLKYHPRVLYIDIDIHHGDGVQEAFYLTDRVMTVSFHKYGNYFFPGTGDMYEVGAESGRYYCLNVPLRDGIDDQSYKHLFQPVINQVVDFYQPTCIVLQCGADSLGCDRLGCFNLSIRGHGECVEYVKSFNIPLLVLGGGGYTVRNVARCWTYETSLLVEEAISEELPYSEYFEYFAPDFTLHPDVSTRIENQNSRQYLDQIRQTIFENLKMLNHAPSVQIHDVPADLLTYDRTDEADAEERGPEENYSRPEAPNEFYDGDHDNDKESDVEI

[1] = Cytotoxicity against human MeT-5A cells; type: cell-based
MCF7 = experiment: Antiproliferative activity against human MCF7 cells assessed as cell proliferation after 72 hrs by MTT assay; type: functional; design: concentration or dose not given beside the values
Homo sapiens [2] = species on record: Homo sapiens; experiment: Selectivity index, ratio of IC50 for HDAC1 (unknown origin) to IC50 for HDAC6 (unknown origin)
[3] = biological target: T1, Histone deacetylase (Homo sapiens) (UniProt Q13547+O15379+Q9UBN7+Q92769+Q9UQL6+Q8WUI4+Q9BY41+Q96DB2+P56524+Q9UKV0+Q969S8); conditions: HeLa, at 12.5 µM
Description: Inhibition of human HDAC in HeLa cells nuclear extract at 12.5 uM by fluorimetric assay

[4] = biological target: T2, Protein deacetylase HDAC6 (Homo sapiens, UniProt Q9UBN7); experiment: Inhibition of HDAC6 in human HeLa cells assessed as inhibition of tubulin deacetylation incubated for overnight by cELISA; type: cell-based
T2 sequence (Q9UBN7 whole entry): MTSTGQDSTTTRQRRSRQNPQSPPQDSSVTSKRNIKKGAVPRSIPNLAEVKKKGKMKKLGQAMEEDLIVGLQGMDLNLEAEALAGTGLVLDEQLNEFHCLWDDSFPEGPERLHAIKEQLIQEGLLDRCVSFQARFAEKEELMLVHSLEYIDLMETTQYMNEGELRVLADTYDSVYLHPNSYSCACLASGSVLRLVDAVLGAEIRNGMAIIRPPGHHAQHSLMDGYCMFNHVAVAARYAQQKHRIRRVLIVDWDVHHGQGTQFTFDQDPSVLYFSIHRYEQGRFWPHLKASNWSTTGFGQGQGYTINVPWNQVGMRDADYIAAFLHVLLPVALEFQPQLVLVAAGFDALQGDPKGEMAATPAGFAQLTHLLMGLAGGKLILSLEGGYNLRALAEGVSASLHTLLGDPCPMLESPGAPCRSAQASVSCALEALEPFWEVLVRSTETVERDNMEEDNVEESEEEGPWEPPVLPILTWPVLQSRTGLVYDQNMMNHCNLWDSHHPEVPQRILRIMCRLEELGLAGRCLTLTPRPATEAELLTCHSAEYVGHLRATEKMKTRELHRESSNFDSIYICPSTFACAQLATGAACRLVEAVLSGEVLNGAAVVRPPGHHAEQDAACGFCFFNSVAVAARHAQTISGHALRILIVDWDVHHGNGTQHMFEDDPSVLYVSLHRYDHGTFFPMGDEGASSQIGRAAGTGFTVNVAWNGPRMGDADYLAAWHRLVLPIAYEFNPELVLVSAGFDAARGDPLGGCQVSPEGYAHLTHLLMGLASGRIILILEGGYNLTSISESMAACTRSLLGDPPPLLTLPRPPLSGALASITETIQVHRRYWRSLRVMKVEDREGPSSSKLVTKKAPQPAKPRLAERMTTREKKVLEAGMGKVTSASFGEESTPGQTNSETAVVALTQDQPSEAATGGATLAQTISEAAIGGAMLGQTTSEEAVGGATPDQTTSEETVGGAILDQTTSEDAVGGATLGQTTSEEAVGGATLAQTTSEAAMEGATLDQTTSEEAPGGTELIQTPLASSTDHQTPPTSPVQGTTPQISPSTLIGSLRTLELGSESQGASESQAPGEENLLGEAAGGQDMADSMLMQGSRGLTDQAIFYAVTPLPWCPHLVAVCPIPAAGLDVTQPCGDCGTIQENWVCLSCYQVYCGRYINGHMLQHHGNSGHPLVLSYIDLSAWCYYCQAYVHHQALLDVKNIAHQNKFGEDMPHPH

Histone deacetylase 1 = Histone deacetylase 1 (Homo sapiens, UniProt Q13547); experiment: Inhibition of HDAC1 (unknown origin) by fluorimetric assay
Chain of Histone deacetylase 1 (Q13547 whole entry): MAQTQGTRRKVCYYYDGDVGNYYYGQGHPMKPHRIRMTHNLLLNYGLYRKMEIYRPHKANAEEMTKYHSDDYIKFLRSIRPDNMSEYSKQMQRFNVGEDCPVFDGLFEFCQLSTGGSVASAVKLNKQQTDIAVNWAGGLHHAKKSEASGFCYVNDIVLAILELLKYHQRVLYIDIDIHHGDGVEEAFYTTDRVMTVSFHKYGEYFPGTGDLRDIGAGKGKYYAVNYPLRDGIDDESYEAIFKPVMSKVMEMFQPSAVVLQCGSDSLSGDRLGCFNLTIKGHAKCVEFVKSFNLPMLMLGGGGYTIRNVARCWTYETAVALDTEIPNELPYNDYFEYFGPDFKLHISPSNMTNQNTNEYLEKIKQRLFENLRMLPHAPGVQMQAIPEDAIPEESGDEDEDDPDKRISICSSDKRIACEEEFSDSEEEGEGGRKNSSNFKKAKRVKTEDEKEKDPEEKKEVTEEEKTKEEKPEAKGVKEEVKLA

Histone deacetylase 2 = Histone deacetylase 2 (Homo sapiens, UniProt Q92769); experiment: Inhibition of HDAC2 (unknown origin) by fluorimetric assay
Chain of Histone deacetylase 2 (Q92769 whole entry): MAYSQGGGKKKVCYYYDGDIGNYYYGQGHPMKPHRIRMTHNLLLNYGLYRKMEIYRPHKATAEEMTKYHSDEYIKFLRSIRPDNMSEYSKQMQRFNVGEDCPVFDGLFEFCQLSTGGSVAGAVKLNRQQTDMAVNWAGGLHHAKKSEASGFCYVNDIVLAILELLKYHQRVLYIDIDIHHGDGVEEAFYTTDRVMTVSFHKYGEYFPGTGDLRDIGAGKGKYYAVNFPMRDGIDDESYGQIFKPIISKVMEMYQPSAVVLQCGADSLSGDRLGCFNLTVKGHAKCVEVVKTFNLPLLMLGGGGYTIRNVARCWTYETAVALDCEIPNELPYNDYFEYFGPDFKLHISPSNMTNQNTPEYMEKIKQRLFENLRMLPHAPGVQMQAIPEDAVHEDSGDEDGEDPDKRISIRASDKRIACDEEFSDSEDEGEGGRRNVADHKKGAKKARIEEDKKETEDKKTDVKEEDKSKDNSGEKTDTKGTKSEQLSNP

[5] = biological target: T1, Histone deacetylase (Homo sapiens); experiment: Inhibition of HDAC in human MeT-5A cells assessed as hisone H3 acetylation after 16 hrs by BRET assay; type: cell-based
Homo sapiens [6] = species on record: Homo sapiens; experiment: Selectivity index, ratio of IC50 for HDAC2 (unknown origin) to IC50 for HDAC6 (unknown origin)
[7] = biological target: T2, Protein deacetylase HDAC6; experiment: Inhibition of HDAC6 (unknown origin) by fluorimetric assay
[8] = biological target: T1, Histone deacetylase (Homo sapiens); experiment: Inhibition of HDAC in human MeT-5A cells assessed as hisone H3 acetylation at 100 uM after 16 hrs by BRET assay; type: cell-based

SMILES | EC50 [4] [µM] | inhibition [5] | Cell proliferation (HepG2) [%] | Activity [1] | Cell proliferation (MCF7) [%] | other results
CC(=O)Nc1ccc(C(=O)Nc2ccccc2N)cc1 [TACEDINALINE] |  |  |  | Non-toxic |  | inhibition [3]: 42%
O=C(CCCCCCC(=O)NO)NO [SUBEROHYDROXAMIC ACID] | 1.1 |  | 107 | Non-toxic | 93 | IC50 (Histone deacetylase 3): 62.6 µM; IC50 [7]: 2.03 µM
C=CCCC(=O)N(OC(=O)OC(C)(C)C)C(=O)OC(C)(C)C |  |  | 110 |  | 94 | 
C=CCCC(=O)Nc1ccccc1NC(=O)OC(C)(C)C |  |  | 142 |  | 50 | 
O=C(CCCCCCC(=O)Nc1ccccc1)NO [VORINOSTAT] |  |  |  | Non-toxic |  | 

Now from value to compound, other results behind:

EC50 [4] [µM] | inhibition [5] | SMILES | Cell proliferation (HepG2) [%] | Activity [1] | Cell proliferation (MCF7) [%] | other results
5 | Active | CC(C)(C)OC(=O)ON(C(=O)CCCCCCC(=O)N(OC(=O)OC(C)(C)C)C(=O)OC(C)(C)C)C(=O)OC(C)(C)C | 108 | Non-toxic | 92 | IC50 (Histone deacetylase 3): > 100 µM; Ratio IC50 (Homo sapiens [2]): 10; inhibition [3]: 60%; IC50 (Histone deacetylase 1): 30.6 µM; IC50 (Histone deacetylase 2): 29.8 µM; Ratio IC50 (Homo sapiens [6]): 10; IC50 [7]: 3.39 µM; Activity [8]: 17 mU
 | inactive | CC(C)(C)OC(=O)Nc1ccccc1NC(=O)CCCCCCC(=O)Nc1ccccc1NC(=O)OC(C)(C)C | 136 |  | 87 | 
17.7 | inactive | CC(C)(C)OC(=O)ON(C(=O)CC/C=C/CCC(=O)N(OC(=O)OC(C)(C)C)C(=O)OC(C)(C)C)C(=O)OC(C)(C)C | 138 | Non-toxic | 100 | 
 | inactive | CC(C)(C)OC(=O)Nc1ccccc1NC(=O)CC/C=C/CCC(=O)Nc1ccccc1NC(=O)OC(C)(C)C |  |  |  | 
 | Active | Nc1ccccc1NC(=O)CCCCCCC(=O)Nc1ccccc1N | 114 | Non-toxic | 92 | 
